Assay results: patent US20030032674A1, “Use of unsaturated fatty acids to treat severe inflammatory diseases” (priority 2001, published 2003)

Experiments:
COX-2 expression = assay: COX-2 immunoblot (Western blot) in RAW 264.7 cells; assay type: cell-based, murine
Description: Cell culture—RAW 264.7 cells (a murine macrophage-like cell line, ATCC TIB-71), 293T cells (a human embryonic kidney cell line, provided by Sam Lee, Beth Israel Hospital. Boston, Mass.), and HT-29 cells (a human colon adenocarcinoma cell line, ATCC HTB-38) were cultured in Dulbecco's modified Eagle's medium (DMEM) containing 10% (v/v) heat-inactivated fetal bovine serum (FBS, Intergen) and 100 units/ml Penicillin and […] Streptomycin (GIBCO-BRL) at 37° C. in a 5% CO2/air environment. Cells (2×10^6) were plated in 60-mm dishes and cultured for an additional 18 hours to allow the number of cells to approximately double. Cells were maintained in serum-poor (0.25% FBS) medium for another 18 hours prior to the treatment with indicated reagents.
Preparation of fatty acids-albumin complexes—All fatty acids were solubilized in ethanol, and then combined with fatty acid-free and low-endotoxin BSA at a molar ratio of 10:1 (fatty acid: albumin) in serum-poor medium (0.25% FBS). Fatty acids-albumin complex solution was freshly prepared prior to each experiment.
Sodium dodecyl sulfate-polyacrylamide gel electrophoresis (SDS-PAGE) and immunoblotting—These procedures were performed as previously described in D. Hwang et al., “Expression of mitogen-inducible cyclooxygenase induced by lipopolysaccharide: mediation through both mitogen-activated protein kinase and NF-kappaB signaling pathways in macrophages,” Biochem. Pharmacol., vol. 54, pp. 87-96 (1997). Briefly, solubilized proteins were subjected to 8% SDS-PAGE for COX-2, iNOS, IL- 1α and GAPDH immunoblot analyses. Following electrophoresis, the gel was transferred to a PVDF membrane and the membrane was blocked to prevent non-specific binding of antibodies in TBS-T [20 mM Tris HCl, 137 mM NaCl, 0.05% (v/v) Tween 20, pH 7.6] containing 5% non-fat dried milk (Carnation). Immunoblotting was performed using respective polyclonal antibodies followed by incubation with anti-rabbit IgG coupled to horseradish peroxidase. The membrane was exposed on an X-ray film (Kodak) using ECL western blot detection reagents (Amersham).
After 11 h, cell lysates were analyzed by COX-2, iNOS, IL-1α, or GAPDH immunoblot using a Western blot analysis.
The cell lysates were analyzed by COX-2 or GAPDH immunoblot.
RAW 264.7 cells were pretested with various concentrations (5, 10, 20, and 50 μM) of docosahexaenoic acid (C22:6n-3) for 3 hours, and then stimulated with LPS (100 ng/ml) for 8 hours and analyzed by COX-2, iNOS, IL-1 a or GAPDH immunoblot.
Cells stably transfected with NFκB(5×) or COX-2 promoter reporter genes were pretreated with various concentrations of each fatty acid for 3 hrs. Cells were then treated with LPS (200 ng/ml). After 8 hrs, cell lysates were prepared and luciferase activities were determined. Data are expressed as a percentage of LPS treatment alone. The results for NFκB and COX-2 expression are given in FIGS. 8A and 8B, respectively. The values are mean±SEM (n=3) of RLA, relative luciferase activity. In FIG. 8C, the cells were pretreated with DHA (20 μM) or C12:0 (75 μM) for 3 hrs and further stimulated with LPS (200 ng/ml for DHA; 1 ng/ml for C12:0). After 8 hr, cell lysates were analyzed by COX-2 and actin immunoblotting.

COX-2 promoter = COX-2 promoter luciferase reporter, stably transfected RAW 264.7 cells, TLR agonist-induced; assay type: cell-based, murine; conditions: pretreated 3 hrs
Description: Preparation of stably transfected cells with luciferase reporter plasmids. RAW 264.7 cells (1×10^6 cells) were plated in 100 mm dish and transfected with murine COX-2 promoter (−3.2 kb) luciferase plasmid using Superfect Transfection reagent (Qiagen) according to the manufacturer's instruction. pcDNA3/neo was co-transfected to select transfected cells using the antibiotic. After 48 hrs of stabilization, the new media containing Geneticin (500 μg/ml) was added and changed for appropriate time periods. Two weeks later, the colonies that survived were selected and propagated under Geneticin. After another two weeks of antibiotic selection, the luciferase activities were determined for each colony after treatment with LPS (100 ng/ml).
These stably transfected cell lines eliminated the necessity of transfecting plasmids for the reporter gene and the internal control. Thus, inhibitory or stimulatory effects of various fatty acids on agonist-induced TLR activation were quantitatively determined in a high throughput mode using 96 well plates. […] Therefore, NFκB activation and COX-2 expression was used as readouts for agonist-induced TLR activation, and its suppression or potentiation by fatty acids in this experiment. […]
(FIG. 10A). […] After 8 hrs, luciferase activities were determined. Data are expressed as a percentage of PamCAG treatment alone.

## CCCCCCCCCCCC(=O)O [lauric acid]
COX-2 expression; DHA 20 μM or C12:0 75 μM 3 hrs, LPS 200 ng/ml for DHA, 1 ng/ml for C12:0, 8 hr
  effect on LPS-induced COX-2 expression (immunoblot): potentiated
COX-2 expression; RAW 264.7, lauric acid 1, 10, 50, 100 μM with BSA, 11 h
  COX-2 expression induced by fatty acid (immunoblot): induced
COX-2 promoter; LPS 200 ng/ml 8 hrs
  effect on LPS-induced COX-2 expression (reporter gene): potentiated
COX-2 promoter; PamCAG 500 ng/ml 8 hrs
  effect on PamCAG-induced COX-2 expression: potentiated
